Data from publication PMC6899576, “Structure‐Based Screening of Tetrazolylhydrazide Inhibitors versus KDM4 Histone Demethylases” (Chemmedchem, 2019).

Tests used:
[1] = biological target: T1, KDM4D (Homo sapiens, UniProt Q6B0I6); assay: isothermal titration calorimetry; assay type: binding
T1 construct: catalytic core, residues 1-342 (11-342 visible in crystals); pQTEV N-terminal His6 tag removed by TEV protease; E. coli
T1 sequence (Q6B0I6 1-342): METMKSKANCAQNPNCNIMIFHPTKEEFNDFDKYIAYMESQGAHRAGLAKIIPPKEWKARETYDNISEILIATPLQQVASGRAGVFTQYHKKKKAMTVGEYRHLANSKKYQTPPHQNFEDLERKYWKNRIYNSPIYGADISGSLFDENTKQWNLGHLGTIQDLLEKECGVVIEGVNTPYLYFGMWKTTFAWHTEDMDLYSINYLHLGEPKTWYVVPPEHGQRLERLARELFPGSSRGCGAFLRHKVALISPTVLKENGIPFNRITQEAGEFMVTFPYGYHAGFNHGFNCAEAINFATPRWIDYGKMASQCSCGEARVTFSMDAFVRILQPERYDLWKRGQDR
Text: isothermal titration calorimetry on KDM4D

[2] = biological target: T2, KDM4A (Homo sapiens, UniProt O75164); assay: LANCE Ultra antibody-based demethylase assay; assay type: biochemical
T2 construct: catalytic domain, residues 1-359; pQTEV N-terminal His6 tag removed by TEV protease
T2 sequence (O75164 1-359): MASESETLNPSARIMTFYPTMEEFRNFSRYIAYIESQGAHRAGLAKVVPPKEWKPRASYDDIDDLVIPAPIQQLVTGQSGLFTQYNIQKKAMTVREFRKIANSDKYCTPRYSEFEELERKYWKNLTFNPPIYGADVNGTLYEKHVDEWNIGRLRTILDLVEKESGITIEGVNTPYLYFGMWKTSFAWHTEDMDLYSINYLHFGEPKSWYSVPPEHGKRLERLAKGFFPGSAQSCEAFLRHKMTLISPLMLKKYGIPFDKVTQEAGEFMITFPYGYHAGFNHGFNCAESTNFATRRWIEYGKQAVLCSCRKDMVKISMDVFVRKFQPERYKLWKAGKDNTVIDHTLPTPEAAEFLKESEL
Text: LANCE Ultra antibody-based demethylase assay on KDM4A

Row | Structure (SMILES) | Kd [1] [µM] | IC50 [2] [µM]
1 | NNC(=O)Cc1nnn[nH]1 [compound 1] | 2.3 ± 0.9 | 
2 | NNC(=O)c1ccc(-c2nn[nH]n2)cc1 [compound 6] |  | 216 ± 33
3 | NNC(=O)c1cccc(-c2nn[nH]n2)c1 [compound 7] | 41 ± 15 | 195 ± 39
